Assay in all cases: NCI tumour cell line growth inhibition, 48 h
Test [1] has as its system HT29 colon.
For test [2], the system named is A549 NSCLC.
Test [3] concerns LOX IMVI melanoma.
Test [4] has as its system NCI-H460 lung.
Test [5] deals with NCI-H522 lung.
For test [6], the system named is OVCAR-5 ovarian.
Test [7] concerns NCI/ADR-RES ovarian.
In test [8] the test system is DU-145 prostate.
Test [9] concerns EKVX NSCLC.
The test system of test [10] is MCF7 breast.

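Results reflect a 48-hour exposure of cells in 96-well plates to compound at five concentrations. Here, GI50 denotes the concentration required for 50% inhibition of growth. At the TGI there is no net growth.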

Turning to `CO[C@H](C(=O)O)[C@@H]1Cc2cc3cc(OC4CC(OC5CC(O)C(O)C(C)O5)C(O)C(C)O4)c(C)c(O)c3c(O)c2C(=O)[C@H]1OC1CC(OC2CC(OC3CC(C)(O)C(O)C(C)O3)C(O)C(C)O2)C(O)C(C)O1` (stereo partly drawn), the GI50 in test [1] was 0.305 µM; in test [2] it was 0.257 µM; in [3], 0.114 µM; in test [4] it was 0.131 µM; in test [5] it was 0.134 µM; in test [6] it was 0.375 µM. Also, the GI50 in test [7] was 10.1 µM; in test [8] it was 0.364 µM; in test [9], 0.57 µM. Moreover, the TGI in test [1] is more than 32.5 µM; in [2], more than 32.5 µM; in test [3], 1.48 µM; in test [4] it was more than 32.5 µM; in test [5] it was more than 32.5 µM; in [6], more than 32.5 µM. The TGI in test [7], in test [8] and in test [9] was more than 32.5 µM each time.

Consider `NCP(=O)(O)OCC(=O)O`, for which the TGI in test [1], in test [2], in [3], in [4], in test [5] and in test [6] was more than 100 µM each time. This compound also yielded a TGI in test [9] of more than 100 µM.

`CCOC(=O)/C(C#N)=C/Nc1ccc(-c2nc3ccccc3[nH]2)cc1`: the GI50 in test [2] is 52.7 µM; in test [3] it was 19.4 µM; in test [4], 24.8 µM; in [5], 24 µM; in test [6] it was 50.8 µM; in [7], 41.4 µM. Besides, the GI50 in test [8] was 66.6 µM; in test [9] it was 34.4 µM. Also, the TGI was more than 100 µM in test [2]; 41.5 µM in [3]; more than 100 µM in test [4]; more than 100 µM in test [5]; more than 100 µM in [6]; 66.1 µM in [7]. Also, the TGI in test [8] and in test [9] was more than 100 µM in each case.

On to `COc1cc(C2c3cc4c(cc3[C@@H](Nc3ccc(N)cc3)C3COC(=O)[C@H]23)OCO4)cc(OC)c1O` (stereo partly drawn), for which the TGI in [10] came out at 12.3 µM; in test [1] it was 54 µM; in test [2], 3.46 µM; in [3] it was 6.48 µM; in test [4] it was 2.36 µM; in [5] it was 6.57 µM. For the same compound, the TGI in [6] came to 31.6 µM; in test [7] it was 44.5 µM; in test [9], 10.9 µM. In addition, the GI50 is 0.317 µM in [2]; 0.139 µM in test [4]; 0.789 µM in test [5]; 0.896 µM in [6]; 0.953 µM in test [9].

For `Cn1cc(NC(=O)c2cc(NC(=O)CCCCCCC(=O)Nc3cc(C(=O)Nc4cc(C(=O)NCCC(=N)N)n(C)c4)n(C)c3)cn2C)cc1C(=O)NCCC(=N)N`, the TGI is more than 100 µM in test [1]; 54.4 µM in test [2]; 18.5 µM in test [3]; 21.4 µM in test [4]; more than 100 µM in test [6]; more than 100 µM in test [9].

For `Nc1ccc(C(=O)N/C(=C\c2cccc([N+](=O)[O-])c2)c2nc3c4c(ccc3[nH]2)C(=O)c2ccccc2C4=O)cc1`, the TGI in [1] was more than 100 µM; in test [2], more than 100 µM; in [3], more than 100 µM; in [4] it was more than 100 µM; in test [5], 71.2 µM; in test [6], more than 100 µM. The same compound registered a TGI in test [9] of more than 100 µM.

As for `CN(C)CC1CCCC/C1=N/OC(=O)c1ccc(Cl)c(Cl)c1` (stereo not drawn), the TGI in test [1], in test [2], in test [3], in [4], in [5] and in test [6] was more than 100 µM in each case. The compound further returned a TGI in test [9] of more than 100 µM.

Consider `COC(=O)C1CC(C(=O)OC)c2nc3cc(C)c(C)cc3nc21` (stereo not drawn), for which the TGI in [1], in [2], in test [3], in test [4], in test [5] and in [6] was more than 100 µM throughout. Besides, the TGI in test [9] is more than 100 µM.

For `COc1ccc(C(=O)O/N=C2/CCC/C2=C\c2ccccc2)cc1`, the TGI in [1], in test [2], in test [3], in test [4], in test [5] and in test [6] was more than 100 µM in each case. This compound gave a TGI in [9] of more than 100 µM.

Take `C1C[OH+]CC[OH+]CC[OH+]CC[OH+]CC[OH+]CC[OH+]1.[Cl-].[Nb+5]`: the GI50 in test [1], in [2], in test [3], in test [4] and in [5] was more than 100 µM in each case. Moreover, the TGI in test [1], in [2], in [3], in test [4] and in [5] was more than 100 µM in each case.

For `COC(=O)Cc1nc2ccccc2o1`, the TGI in test [1], in test [2], in test [4], in test [5], in test [6] and in test [9] was more than 100 µM throughout.

As to `Nc1nc(N)c(-c2ccccc2)c(CCC(=O)Nc2ccc(Cl)cc2)n1`, the TGI in test [1], in [2], in test [4], in [5], in test [6] and in test [9] was more than 100 µM each time.

Regarding `OCC(O)C(OC1OC(CO)C(O)C(O)C1O)c1nn(-c2ccccc2)c2nc3cc(Cl)ccc3nc12` (stereo not drawn), the TGI in test [1], in test [3], in [4], in test [5], in test [6] and in test [9] was more than 100 µM each time.

With `CCOC(=O)/N=c1/nc(N(C)C)ss1`, the TGI in [1], in test [2], in test [4], in test [5], in [6] and in test [9] was more than 100 µM throughout.

These data come from PubChem BioAssay (NCI).
